From patent publication US8575153B2 (Kowa Company, Ltd., priority 2008, dated 2013)
Counter-ions that a name gives are not always drawn.

Target: Recombinant human JAK3 enzyme (JAK3 kinase region; Ala795-Ser1124) (Homo sapiens, UniProt P52333)
Test: JAK3 Kinase Assay (Kinase-Glo luminescent, ATP consumption)
Settings: for inhibition at 0.1 µM / inhibition at 1 µM: read-out: Inhibition rate (%) of JAK3 kinase activity
Description: Recombinant human JAK3 enzyme (JAK3 kinase region; Ala795-Ser1124) was purchased from Carna Biosciences, Inc.
The reaction was conducted in a kinase buffer (reaction volume: a total of 50 μl) containing 8 mM MOPS (pH 7.0), 0.2 mM EDTA, a test compound solution prepared to each concentration and 0.5 μg/ml JAK3 enzyme using a 96-well polystyrene plate (clear-bottom white-wall). […] After incubating them at room temperature for 2 hours, 50 μl of Kinase-Glo Luminescent Kinase Assay reagent (Promega) was added to each well, and further incubated at room temperature for 10 minutes. Using a chemiluminescence microplate reader MicroLumat LB96P (Berthold), chemiluminescence intensity was measured to quantitate the amount of ATP remaining after reaction. From the amount of ATP consumed in the phosphorylation reaction, the inhibition rate (%) of JAK3 kinase activity was determined.

Chain of Recombinant human JAK3 enzyme (JAK3 kinase region; Ala795-Ser1124) (P52333 795-1124): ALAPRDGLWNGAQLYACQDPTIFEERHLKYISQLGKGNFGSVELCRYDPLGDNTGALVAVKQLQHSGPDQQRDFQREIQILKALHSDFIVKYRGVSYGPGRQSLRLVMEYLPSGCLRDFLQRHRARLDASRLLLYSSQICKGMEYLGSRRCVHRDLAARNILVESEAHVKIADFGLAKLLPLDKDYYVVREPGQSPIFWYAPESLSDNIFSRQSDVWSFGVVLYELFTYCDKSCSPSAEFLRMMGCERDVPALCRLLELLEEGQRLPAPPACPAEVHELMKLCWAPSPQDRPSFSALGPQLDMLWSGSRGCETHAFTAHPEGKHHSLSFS

Compound | inhibition at 0.1 µM [%] | also measured
CC(C)N1CCN(c2ccc(Nc3cc(NCc4cc(F)cc(F)c4)c(C(N)=O)cn3)cc2)CC1 [Example 151, 4-[(3,5-difluorobenzyl)amino]-6-({4-[4-(propan-2-yl)piperazin-1-yl]phenyl}amino)pyridine-3-carboxyamide] | 69 | –
Cc1cccc(CNc2cc(Nc3ccc(N4CCOCC4)cc3)ncc2C(N)=O)c1 [Example 77, 4-[(3-methylbenzyl)amino]-6-[(4-morpholinophenyl)amino]pyridine-3-carboxyamide] | 55 | –
CC(C)N1CCN(c2ccc(Nc3cc(NCc4cccnc4)c(C(N)=O)cn3)cc2)CC1 [Example 356, 6-({4-[4-(propan-2-yl)piperazin-1-yl]phenyl}amino)-4-[(pyridin-3-ylmethyl)amino]pyridine-3-carboxyamide] | – | inhibition at 1 µM: 92%
NC(=O)c1cnc(Nc2ccc(N3CCOCC3)cc2)cc1NCc1cccc(Cl)c1 [Example 81, 4-[(3-chlorobenzyl)amino]-6-[(4-morpholinophenyl)amino]pyridine-3-carboxyamide] | 72 | –
CC(C)S(=O)(=O)N1CCN(c2cccc(Nc3cc(NCc4cc(F)cc(F)c4)c(C(N)=O)cn3)c2)CC1 [Example 174, 4-[(3,5-difluorobenzyl)amino]-6-({3-[4-(propan-2-ylsulfonyl)piperazin-1-yl]phenyl}amino) pyridine-3-carboxyamide] | – | Inhibition rate (%) of JAK3 kinase activity (test compound at 0.1 μM): 58%
CC(C)S(=O)(=O)Nc1ccc(Nc2cc(NCc3ccccc3)c(C(N)=O)cn2)cc1 [Example 163, 4-(benzylamino)-6-({4-[(propan-2-ylsulfonyl)amino]phenyl}amino)pyridine-3-carboxyamide] | 77 | –
N#CCC(=O)N1CCN(c2ccc(Nc3cc(NCc4c(F)cccc4F)c(C(N)=O)cn3)cc2)CC1 [Example 266, 6-({4-[4-(cyanoacetyl)piperazin-1-yl]phenyl}amino)-4-[(2,6-difluorobenzyl)amino]pyridine-3-carboxyamide] | 77 | –
CCCS(=O)(=O)Nc1ccc(Nc2cc(NCc3cc(F)cc(F)c3)c(C(N)=O)cn2)cc1 [Example 162, 4-[(3,5-difluorobenzyl)amino]-6-({4-[(propylsulfonyl)amino]phenyl}amino)pyridine-3-carboxyamide] | 72 | –
CCN(CC)CCN1CCN(c2ccc(Nc3cc(NCc4ccccc4)c(C(N)=O)cn3)cc2)CC1 [Example 236, 4-(benzylamino)-6-[(4-{4-[2-(diethylamino)ethyl]piperazin-1-yl}phenyl)amino]pyridine-3-carboxyamide] | 83 | –
NC(=O)c1cnc(Nc2ccc(N3CCC(C(=O)N(CCO)CCO)CC3)cc2)cc1NCc1ccccc1 [Example 177, 4-(benzylamino)-6-[(4-{4-[bis(2-hydroxyethyl)carbamoyl]piperidino}phenyl)amino]pyridine-3-carboxyamide] | 84 | –
C[C@@H]1CN(c2ccc(Nc3cc(NCc4cc(F)ccc4F)c(C(N)=O)cn3)cc2)C[C@H](C)N1 [Example 142, 4-[(2,5-difluorobenzyl)amino]-6-({4-[(3R,5S)-3,5-dimethylpiperazin-1-yl]phenyl}amino) pyridine-3-carboxyamide] | 66 | –
CN1CCC(Oc2ccc(Nc3cc(NCc4ccccc4)c(C(N)=O)cn3)cc2)CC1 [Example 52, 4-(benzylamino)-6-({4-[(1-methylpiperidin-4-yl)oxy]phenyl}amino)pyridine-3-carboxyamide] | 72 | –
NC(=O)c1cnc(Nc2ccncc2)cc1NCc1ccccc1 [Example 372, 4-benzylamino-6-(pyridin-4-ylamino) pyridine-3-carboxyamide] | – | inhibition at 1 µM: 31%
NC(=O)c1cnc(Nc2ccc(N3CCOCC3)cc2)cc1NCc1cccnc1 [Example 353, 6-[(4-morpholinophenyl)amino]-4-[(pyridin-3-ylmethyl)amino}pyridine-3-carboxyamide] | – | inhibition at 1 µM: 65%
NC(=O)c1cccc(CNc2cc(Nc3ccc(N4CCOCC4)cc3)ncc2C(N)=O)c1 [Example 115, 4-[(3-carbamoylbenzyl)amino]-6-[(4-morpholinophenyl)amino]pyridine-3-carboxyamide] | 70 | –
CCN(CC)CCN1CCN(c2cccc(Nc3cc(NCc4cc(F)cc(F)c4)c(C(N)=O)cn3)c2)CC1 [Example 239, 6-[(3-{4-[2-(diethylamino)ethyl]piperazin-1-yl}phenyl)amino]-4-[(3,5-difluorobenzyl)amino]pyridine-3-carboxyamide] | 57 | –
COc1ccccc1CNc1cc(Nc2ccc(N3CCN(C(C)C)CC3)cc2)ncc1C(N)=O [Example 147, 4-[(2-methoxybenzyl)amino]-6-({4-[4-(propan-2-yl)piperazin-1-yl]phenyl}amino)pyridine-3-carboxyamide] | 58 | –
CCN(CC)CC(=O)N1CCN(c2ccc(Nc3cc(NCc4cccc(F)c4F)c(C(N)=O)cn3)cc2)CC1 [Example 205, 6-({4-[4-(N,N-diethylglycyl)piperazin-1-yl]phenyl}amino}-4-[(2,3-difluorobenzyl)amino]pyridine-3-carboxyamide] | 98 | –

Compound | inhibition at 0.1 µM [%] | also measured
Cc1ccc(S(=O)(=O)n2cc(-c3cc(NCc4cc(F)cc(F)c4)c(C(N)=O)cn3)c3cccnc32)cc1 [Example 370, 4-[(3,5-difluorobenzyl)amino]-6-{1-[(4-methylphenyl)sulfonyl}-1H-pyrrolo[2,3-b]pyridin-3-yl}pyridine-3-carboxyamide] | – | inhibition at 1 µM: 13%
NC(=O)c1cnc(Nc2ccc(N3CCNCC3)cc2)cc1NCc1cc(F)ccc1F [Example 222, 4-[(2,5-difluorobenzyl)amino]-6-{[4-(piperazin-1-yl)phenyl]amino}pyridine-3-carboxyamide] | 78 | –
CC(C)NC(=O)N1CCN(c2ccc(Nc3cc(NCc4cccc([N+](=O)[O-])c4)c(C(N)=O)cn3)cc2)CC1 [Example 284, 4-[(3-nitrobenzyl)amino]-6-[(4-{[4-(propan-2-yl)carbamoyl]piperazin-1-yl}phenyl)amino]pyridine-3-carboxyamide] | 63 | –
NC(=O)c1cnc(Nc2ccc(N3CCOCC3)cc2)cc1NCc1cc(F)cc(F)c1 [Example 91, 4-[(3,5-difluorobenzyl)amino]-6-[(4-morpholinophenyl)amino]pyridine-3-carboxyamide] | 92 | –
CN1CCN(c2ccc(Nc3cc(NCc4ccccc4)c(C(N)=O)cn3)cc2)CC1 [Example 145, 4-(benzylamino)-6-{[4-(4-methylpiperazin-1-yl)phenyl]amino}pyridine-3-carboxyamide] | 63 | –
CC(=O)N1CCCC1CNc1cc(Nc2ccc(N3CCOCC3)cc2)ncc1C(N)=O (stereo not drawn) [Example 360, 4-{[(1-acetylpyrrolidin-2-yl)methyl]amino}-6-[(4-morpholinophenyl)amino]pyridine-3-carboxyamide] | – | inhibition at 1 µM: 57%
CCN(CC)CCC1CCN(c2ccc(Nc3cc(NCc4ccccc4)c(C(N)=O)cn3)cc2)CC1 [Example 59, 4-(benzylamino)-6-[(4-{4-[2-(diethylamino)ethyl]piperidino}phenyl)amino]pyridine-3-carboxyamide] | 76 | –
NC(=O)c1cnc(Nc2ccc(NC(=O)[C@@H]3CCCN3)cc2)cc1NCc1cc(F)cc(F)c1 [Example 317, 4-[(3,5-difluorobenzyl)amino]-6-{[4-(L-prolylamino)phenyl]amino}pyridine-3-carboxyamide hydrochloride] | 62 | –
NC(=O)c1cnc(Nc2ccc(N3CCOCC3)cc2)cc1NCc1ccccc1 [Example 72, 4-(benzylamino)-6-{(4-morpholinophenyl)amino]pyridine-3-carboxyamide] | 65 | –
NC(=O)c1cnc(Nc2ccc(N3CCC(CCO)CC3)cc2)cc1NCc1ccccc1 [Example 57, 4-(benzylamino)-6-({4-[4-(2-hydroxyethyl)piperidino]phenyl}amino)pyridine-3-carboxyamide] | 89 | –
NC(=O)c1cnc(Nc2ccc(N3CCOCC3)cc2)cc1NCc1ccccc1Cl [Example 80, 4-[(2-chlorobenzyl)amino]-6-[(4-morpholinophenyl)amino]pyridine-3-carboxyamide] | 79 | –
NC(=O)c1cnc(Nc2ccc(NC(=O)[C@@H]3CCCN3)cc2)cc1NCc1ccccc1 [Example 316, 4-(benzylamino)-6-({4-(L-prolylamino)phenyl]amino}pyridine-3-carboxyamide hydrochloride] | 61 | –
CN1CCCC1CNc1cc(Nc2ccc(N3CCOCC3)cc2)ncc1C(N)=O (stereo not drawn) [Example 359, 4-{[(1-methylpyrrolidin-2-yl)methyl]amino}-6-[(4-morpholinophenyl)amino]pyridine-3-carboxyamide] | – | inhibition at 1 µM: 61%
NC(=O)c1cnc(Nc2ccc(S(N)(=O)=O)cc2)cc1NCc1cc(F)cc(F)c1 [Example 328, 4-[(3,5-difluorobenzyl)amino]-6-[(4-sulfamoylphenyl)amino]pyridine-3-carboxyamide] | 70 | –
NC(=O)c1cnc(Nc2ccc(N3CCCN(CCO)CC3)cc2)cc1NCc1ccccc1 [Example 245, 4-(benzylamino)-6-({4-[4-(2-hydroxyethyl)-1,4-diazepan-1-yl]phenyl}amino)pyridine-3-carboxyamide] | 62 | –
N#CCC(=O)N1CCCN(c2ccc(Nc3cc(NCc4ccccc4)c(C(N)=O)cn3)cc2)CC1 [Example 268, 4-(benzylamino)-6-({4-[4-(cyanoacetyl)-1,4-diazepan-1-yl]phenyl}amino)pyridine-3-carboxyamide] | 65 | –
N#CCC(=O)N1CCN(c2ccc(Nc3cc(NCc4ccccc4)c(C(N)=O)cn3)cc2)CC1 [Example 262, 4-(benzylamino)-6-({4-[4-(cyanoacetyl)piperazin-1-yl]phenyl}amino)pyridine-3-carboxyamide] | 78 | –
Cc1ccccc1CNc1cc(Nc2ccc(N3CCOCC3)cc2)ncc1C(N)=O [Example 76, 4-[(2-methylbenzyl)amino]-6-[(4-morpholinophenyl)amino]pyridine-3-carboxyamide] | 63 | –
